From paper doi:10.1101/2025.08.13.670122v1 (bioRxiv, 2025)

Experiments:
Sprague-Dawley rats = test: Simultaneous in vivo echocardiography and blood pressure measurements; parameters: species or system rat; conditions: intrajugular perfusion 0.96 nmol kg−1 min−1, n = 4; for Change in left ventricular ejection fraction (ΔEF) / cardiac contractility: isoflurane-anesthetized Sprague-Dawley rats; for Change in mean arterial blood pressure (ΔMABP): isoflurane-anesthetized normotensive Sprague-Dawley rats
Experimental: All ligands were administered intravenously at the same dose (0.96 nmol kg^−1 min^−1), by instrumentalizing adult Sprague-Dawley rats for simultaneous recordings of arterial blood pressure and cardiac function (Figure 5A).
Figure 5. Simultaneous in vivo cardiac ultrasound imaging and blood pressure monitoring of adult Sprague-Dawley rats following constant administration of AT1R ligands. (A) The acquisition setup for each isoflurane-anesthetized rat includes a catheter in the right femoral artery connected to a TDX300 Micro-med transducer and BPA-100c blood pressure (BP) analyzer for continuous BP measurement, while drug administration is performed via a catheter inserted in the left jugular vein and linked to an automatic syringe pump set at a flow rate of 30 µl*min^−1. […] The syringe pump is initiated at 0 s, and the catheter’s saline dead volume is flushed in approximately 180 s.
Figure 6. […] Changes in mean arterial blood pressure (ΔMABP; A), ejection fraction (ΔEF; B), left ventricular end-systolic (ΔLVES; C) and end-diastolic (ΔLVEDV; D) volumes, and stroke volume (ΔSV; E) were measured from simultaneous in vivo cardiac blood pressure monitoring and ultrasound imaging. […] The syringe pump is initiated at 0 s, and the catheter’s saline dead volume is flushed in approximately 180 s. […] Statistical analyses were performed with an unpaired standard t-test. * p < 0.05, ** p < 0.01 and ***p<0.005.
Male Sprague-Dawley rats (230–350 g, 7–9 weeks of age) were initially anesthetized with 5% isoflurane (mixed with 100% oxygen at a flow rate of 2.5 L/min). The animal was placed in a supine position on a thermostatic pad set at 37°C, and anesthesia was maintained with 2% isoflurane, confirmed by the absence of reflexes to toe pinch. The right femoral artery was cannulated with a PE 50 catheter filled with heparinized saline (10 units/mL) and connected to a Micro-Med transducer (TDX-300) and a Micro-Med blood pressure analyzer (BPA-100c). The left jugular vein was also cannulated with a PE 50 catheter filled with heparinized saline (10 units/mL) and connected to a syringe operated by an automatic pump with a flow rate of 30 µL min-1. […] Blood pressure parameters were continuously obtained throughout the experiment, and heart function parameters were simultaneously captured at various time points using a Vevo3100 echocardiography system equipped with an MX250 ultrasound probe (FUJIFILM VisualSonics). The ejection fraction was determined from a parasternal long-axis view of the left ventricle in B-mode imaging and analyzed using Vevo LAB 5.7.1 (FUJIFILM VisualSonics). Data were presented as the mean ± SEM of four different rats per group. Statistical analyses were conducted with standard analysis of variance (ANOVA) followed by Tukey’s multiple comparisons test. […]

Plasma stability = type: in vitro ADME; conditions: male Sprague-Dawley rat plasma, 6 μL of 1 mM compound (10% DMSO) in 27 μL plasma, 37°C, 0-24 h, UPLC-MS, one-phase decay, mean ± SEM of at least three experiments, read-out: Plasmatic half-life t1/2 (±SEM)
Experimental: The degradation was quenched by adding 140 μL of 1% formic acid in an acetonitrile-ethanol (1:1) solution containing 0.25 mM of N,N-dimethylbenzamide (used as an internal standard). This mixture was initially transferred to an Impact Protein Precipitation filter plate (Phenomenex, California), the filtrates from which were subsequently collected in a second 96-well UPLC plate. Both plates were centrifuged at 500 g for 10 min while maintaining a temperature of 4°C. The filtrates were then diluted with 30 μL of distilled water and processed for analysis using an Acquity UPLC-MS system class H (using an Acquity UPLC protein BEH C18 column that measured 2.1 mm × 50 mm and had 1.7 μm particles with pores 130 Å in width). The peptide half-life, derived from the degradation curve, was calculated using the exponential one-phase decay function in GraphPad Prism 9. Degradation was estimated by comparing the mass spectrum at each point with those at the zero-minute mark. The data were presented as a mean ± SEM of at least three unique experiments, each performed in singlicate.

endogenous AT1R [1] = molecular target: T1, endogenous AT1R (Rattus norvegicus, UniProt P25095); test: Rho BRET sensor in rat primary VSMC with endogenous AT1R; type: cell-based; conditions: adenoviral Rho BRET sensor, 1 min 30 s stimulation, mean ± SEM of at least three to five independent experiments, read-out: EC50 Rho in VSMCs
T1 construct: expressing low levels of endogenous AT1R; endogenous in cells; host or cells: rat primary VSMC, passages 13-15
T1 sequence (P25095 1-359): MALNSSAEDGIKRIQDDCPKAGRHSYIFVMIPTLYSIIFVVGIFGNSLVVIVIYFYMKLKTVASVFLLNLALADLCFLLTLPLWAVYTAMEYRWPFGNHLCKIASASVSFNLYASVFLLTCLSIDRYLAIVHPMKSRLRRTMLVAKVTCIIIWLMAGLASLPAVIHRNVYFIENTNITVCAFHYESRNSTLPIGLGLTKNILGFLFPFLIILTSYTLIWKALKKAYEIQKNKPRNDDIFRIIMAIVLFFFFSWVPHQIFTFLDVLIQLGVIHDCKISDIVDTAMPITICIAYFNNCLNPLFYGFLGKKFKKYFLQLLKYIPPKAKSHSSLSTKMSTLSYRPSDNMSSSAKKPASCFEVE
Text: (§1) We next assessed the analogs’ ability to engage Gαq by assessing either the PKC or Rho responses in rat primary vascular smooth muscle cell (VSMC) culture, expressing low levels of endogenous AT1R (between 25–50 fmol/mg) (Figure 4, Table 6).
(§2) The coding regions of the PKC-c1b sensor, PKN-RBD-RlucII, and rGFPcaax were PCR-amplified and subcloned into the KpnI/XhoI sites of the pENTR3C vector (Invitrogen), respectively. These were then transferred into the adenoviral expression vector pAd/CMV/V5-DEST (Invitrogen), via gateway cloning (pAD-CMV-PKC-c1b, pAD-CMV-PKN-RBD-RLucII, and pAD-CMV-rGFPcaax). Viruses containing the sensor codes were generated following a previously outlined process.[49] […] The following day, cells were transfected with 4 µg of PacI-digested pAd5-CMVsensors using Lipofectamine 2000 (Invitrogen). After 7–10 days post-transfection, mature virus particles were gleaned via the collection of cells and media, which then underwent multiple cycles of freezing and thawing, followed by centrifugation. The harvested virus was amplified by re-infection on 100-mm dishes of confluent HEK293A cells, and harvested 48-72 h later. Viral titers were determined by serial dilution of adenovirus stock and subsequent infection of HEK293A cells in 96-well plates. 36 h after infection, cells were stained using an anti-hexon antibody (ab8249; Abcam), and hexon-expressing cells were tallied via fluorescence microscopy. The virus was then stored at −80°C. After this, rat VSMCs (between the 13th to 15th passages) were seeded at a density of 20,000 cells in each well of white 96-well plates 24 h before transduction with the viral vector. The cells were then transduced with the PKC sensor-adenovirus (3 μL per well) or Rho sensor (1 μL each per well of PKN-RBD-RLucII-adnovirus and rGFP-caax adenovirus). After 24 h, the medium was replaced. 48 h post-viral transduction, the cells were thoroughly washed with Tyrode’s buffer. Finally, BRET assays were carried out as detailed below.
(§3) On the day of the experiment, each well was washed with 80 µL of Tyrode’s buffer (140 mM NaCl, 2.7 mM KCl, 1 mM CaCl2, 12 mM NaHCO3, 5.6 mM D-glucose, 0.5 mM MgCl2, 0.37 mM NaH2PO4, 25 mM Hepes (pH 7.4)). This was followed by incubation for 1 h in Tyrode’s buffer at room temperature. For the Gαq, β-arrestin-2, and PKC biosensors used in HEK293 cells, coelenterazine 400A (at a final concentration of 5 μM) was added 10 min before stimulation. Cells were then stimulated with increasing doses of the indicated ligand, and BRET signals were measured using a Tristar2 (Berthold) microplate reader 10 min later. For the PKC and Rho biosensors in VSMCs, and the Rho biosensor in ΔG12/13 cells, cells were similarly stimulated with ligands for 1 min, 1 min 30 s, and 3 min, respectively, before BRET measurement. […] BRET signals were then measured using a Synergy2 (BioTek) microplate reader. The applied filter set was 410/80 nm and 515/30 nm, designed to detect the light emissions of RlucII (Renilla luciferase) (donor) and rGFP (acceptor), respectively.

endogenous AT1R [2] = molecular target: T1, endogenous AT1R; test: PKC BRET sensor in rat primary VSMC with endogenous AT1R; type: cell-based; conditions: adenoviral PKC BRET sensor, 1 min stimulation, mean ± SEM of at least three to five independent experiments, read-out: EC50 PKC in VSMCs
Text: as §1, §2, §3

Structure (SMILES)	Change in left ventricular ejection fraction (ΔEF) / cardiac contractility (Sprague-Dawley rats)	Change in mean arterial blood pressure (ΔMABP) (Sprague-Dawley rats)	half-life at 182 µM (Plasma stability)	EC50 (endogenous AT1R [1])	EC50 (endogenous AT1R [2])
CC[C@H](C)[C@H](NC(=O)[C@H](Cc1ccc(O)cc1)NC(=O)[C@@H](NC(=O)[C@H](CCCNC(=N)N)NC(=O)[C@@H](N)CC(=O)O)C(C)C)C(=O)N[C@@H](Cc1c[nH]cn1)C(=O)N1CCC[C@H]1C(=O)N[C@@H](Cc1ccccc1)C(=O)O [AngII, Angiotensin II]	significant decrease in cardiac ejection fraction of the left ventricle	rapid and sustained increase in arterial blood pressure	–	–	–
CC[C@H](C)[C@H](NC(=O)[C@H](Cc1ccc(O)cc1)NC(=O)[C@@H](NC(=O)[C@H](CCCNC(=N)N)NC(=O)CNC)C(C)C)C(=O)N[C@@H](Cc1cnc[nH]1)C(=O)N1CCC[C@H]1C(=O)N[C@H](C)C(=O)O [TRV027, reference compound]	–	–	16.1 ± 1.2 h	> 10 µM	> 10 µM
CCCc1nc(C(C)(C)O)c(C(=O)O)n1Cc1ccc(-c2ccccc2-c2nnn[nH]2)cc1 [Olmesartan]	did not alter the cardiovascular parameters measured	did not alter the cardiovascular parameters measured	–	–	–
